# In ChEMBL document CHEMBL1201862, “PubChem BioAssay data set” (2004):
#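 Test compounds were applied to cells in 96-well plates for 48 hours at 5 doses. Abbreviation: GI50, concentration required for 50% inhibition of growth.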 Calls of active or inactive are those of the source. Rule as the data show it: active = GI50 up to about 1.1 µM and inactive = higher.
# Tests used:
# Assay in all cases: NCI anticancer screen, dose series, 48 h
# HOP-92 = test system: HOP-92
# U-251 = test system: U-251
# LOX IMVI = test system: LOX IMVI
# UO-31 = test system: UO-31
# K562 = test system: K562
# RPMI-8226 = test system: RPMI-8226
# SF-295 = test system: SF-295
# CAKI-1 = test system: CAKI-1
# OVCAR-3 = test system: OVCAR-3
# TK-10 = test system: TK-10
# OVCAR-8 = test system: OVCAR-8
# A549 = test system: A549
# HL-60 = test system: HL-60
# DMS-273 = test system: DMS-273
# SK-MEL-28 = test system: SK-MEL-28
# HCT-15 = test system: HCT-15
# HCC 2998 = test system: HCC 2998
# T47D = test system: T47D
# MCF7 = test system: MCF7
# DU-145 = test system: DU-145
SMILES,GI50 (HOP-92),GI50 (U-251),GI50 (LOX IMVI),GI50 (UO-31),GI50 (K562),GI50 (RPMI-8226),GI50 (SF-295),GI50 (CAKI-1),GI50 (OVCAR-3),GI50 (TK-10),GI50 (OVCAR-8),GI50 (A549),GI50 (HL-60),GI50 (DMS-273),GI50 (SK-MEL-28),GI50 (HCT-15),GI50 (HCC 2998),GI50 (T47D),GI50 (MCF7),GI50 (DU-145)
CC(C)(C)N1CC2(CCCCC2)C1=O,> 100 µM (inactive),> 100 µM (inactive),> 100 µM (inactive),> 100 µM (inactive),> 100 µM (inactive),> 100 µM (inactive),> 100 µM (inactive),> 100 µM (inactive),> 100 µM (inactive),> 100 µM (inactive),> 100 µM (inactive),> 100 µM (inactive),> 100 µM (inactive),> 100 µM (inactive),> 100 µM (inactive),> 100 µM,> 100 µM (inactive),,,
CN1CCN2c3ccccc3CC(C#N)(C#N)C2C1 (centres undefined),> 100 µM (inactive),> 100 µM (inactive),> 100 µM (inactive),> 100 µM (inactive),> 100 µM (inactive),> 100 µM (inactive),> 100 µM (inactive),> 100 µM (inactive),> 100 µM (inactive),> 100 µM (inactive),> 100 µM (inactive),> 100 µM (inactive),> 100 µM (inactive),> 100 µM (inactive),> 100 µM (inactive),> 100 µM,> 100 µM (inactive),,,
CC[P+](C)(C)CC,> 100 µM (inactive),> 100 µM (inactive),> 100 µM (inactive),> 100 µM (inactive),> 100 µM (inactive),> 100 µM (inactive),> 100 µM (inactive),,> 100 µM (inactive),> 100 µM (inactive),> 100 µM (inactive),> 100 µM (inactive),> 100 µM (inactive),> 100 µM (inactive),> 100 µM (inactive),> 100 µM,> 100 µM (inactive),,,
O=C(O)COc1ccc2c3c1C(=O)CCC3CO2 (centres undefined),> 100 µM (inactive),> 100 µM (inactive),> 100 µM (inactive),> 100 µM (inactive),> 100 µM (inactive),> 100 µM (inactive),> 100 µM (inactive),> 100 µM (inactive),> 100 µM (inactive),> 100 µM (inactive),> 100 µM (inactive),> 100 µM (inactive),> 100 µM (inactive),> 100 µM (inactive),> 100 µM (inactive),> 100 µM,> 100 µM (inactive),,,
O=C(/C=C\c1ccc(Cl)c(Cl)c1)c1ccc(Cl)cc1Cl,> 10 µM (inactive),11.9 µM (inactive),5.74 µM (inactive),> 10 µM (inactive),6.11 µM (inactive),3.18 µM (inactive),18.6 µM (inactive),27.3 µM (inactive),18.2 µM (inactive),> 10 µM (inactive),19.1 µM (inactive),22.6 µM (inactive),4.73 µM (inactive),10.4 µM (inactive),> 10 µM (inactive),4.15 µM,16.7 µM (inactive),,,
CC(C)=C1CCC(CN2CCCC2)C1=O (centres undefined),24.6 µM (inactive),,> 100 µM (inactive),20.8 µM (inactive),21.8 µM (inactive),11.8 µM (inactive),> 100 µM (inactive),13.7 µM (inactive),17.4 µM (inactive),27.5 µM (inactive),> 100 µM (inactive),> 100 µM (inactive),19.7 µM (inactive),39.4 µM (inactive),26.7 µM (inactive),18.5 µM,20.3 µM (inactive),,,
Cc1cn(C2CC(O)C(CO)O2)c(=O)n2nnnc12 (centres undefined),> 100 µM (inactive),> 100 µM (inactive),> 100 µM (inactive),> 100 µM (inactive),> 100 µM (inactive),> 100 µM (inactive),> 100 µM (inactive),,> 100 µM (inactive),> 100 µM (inactive),> 100 µM (inactive),> 100 µM (inactive),> 100 µM (inactive),> 100 µM (inactive),> 100 µM (inactive),> 100 µM,> 100 µM (inactive),,,
O=C1Nc2ccccc2C12CCCC2,,> 100 µM (inactive),,> 100 µM (inactive),> 100 µM (inactive),> 100 µM (inactive),> 100 µM (inactive),> 100 µM (inactive),> 100 µM (inactive),> 100 µM (inactive),> 100 µM (inactive),> 100 µM (inactive),> 100 µM (inactive),> 100 µM (inactive),> 100 µM (inactive),> 100 µM,> 100 µM (inactive),,,
Nc1nc(CCC(=O)Nc2cccc(C(F)(F)F)c2)cc(-c2cccc3ccccc23)n1,,> 100 µM (inactive),> 100 µM (inactive),> 100 µM (inactive),> 100 µM (inactive),,> 100 µM (inactive),> 100 µM (inactive),> 100 µM (inactive),> 100 µM (inactive),> 100 µM (inactive),> 100 µM (inactive),> 100 µM (inactive),> 100 µM (inactive),> 100 µM (inactive),> 100 µM,> 100 µM (inactive),,,
CCOC(=O)C(=O)Nc1ccccc1C(F)(F)F,> 100 µM (inactive),> 100 µM (inactive),> 100 µM (inactive),> 100 µM (inactive),,> 100 µM (inactive),> 100 µM (inactive),> 100 µM (inactive),> 100 µM (inactive),> 100 µM (inactive),> 100 µM (inactive),> 100 µM (inactive),,> 100 µM (inactive),> 100 µM (inactive),> 100 µM,> 100 µM (inactive),,,
C=C1C(=O)O[C@H](c2ccoc2)C[C@@H]1[C@@]1(C)CCCC2(C)C(=O)OCC21 (some centres undefined),,> 100 µM (inactive),> 100 µM (inactive),> 100 µM (inactive),> 100 µM (inactive),> 100 µM (inactive),> 100 µM (inactive),> 100 µM (inactive),> 100 µM (inactive),> 100 µM (inactive),> 100 µM (inactive),> 100 µM (inactive),,> 100 µM (inactive),> 100 µM (inactive),> 100 µM,> 100 µM (inactive),,,
COc1ccc2nccc(C3OC(=O)N4CCC(=O)CC34)c2c1 (centres undefined),67.1 µM (inactive),> 100 µM (inactive),> 100 µM (inactive),> 100 µM (inactive),> 100 µM (inactive),> 100 µM (inactive),> 100 µM (inactive),> 100 µM (inactive),> 100 µM (inactive),> 100 µM (inactive),> 100 µM (inactive),> 100 µM (inactive),> 100 µM (inactive),> 10 µM (inactive),> 100 µM (inactive),> 100 µM,,,,
Cc1cc([N+](=O)[O-])c(C)c2c1[nH]c1ccc(/C(CCC3CCCC3)=N\N)cc12,,,15.4 µM (inactive),15.3 µM (inactive),10.3 µM (inactive),20.3 µM (inactive),18.8 µM (inactive),> 10 µM (inactive),20 µM (inactive),14.2 µM (inactive),23.1 µM (inactive),17.6 µM (inactive),> 10 µM (inactive),20.2 µM (inactive),16.9 µM (inactive),14.2 µM,17 µM (inactive),,,
CC1=C(C(=O)Nc2ccccc2C)C(/C=C/c2ccccc2)C(C(=O)Nc2ccccc2C)=C(C)N1,80 µM (inactive),85.1 µM (inactive),74.8 µM (inactive),34.8 µM (inactive),> 100 µM (inactive),,> 100 µM (inactive),> 100 µM (inactive),> 100 µM (inactive),> 100 µM (inactive),> 100 µM (inactive),99.3 µM (inactive),72.3 µM (inactive),> 100 µM (inactive),> 100 µM (inactive),> 100 µM,> 100 µM (inactive),,,
O=C(O)/C(=C/c1ccccc1[N+](=O)[O-])c1cccs1,,> 100 µM (inactive),> 100 µM (inactive),> 100 µM (inactive),> 100 µM (inactive),> 100 µM (inactive),> 100 µM (inactive),> 100 µM (inactive),> 100 µM (inactive),> 100 µM (inactive),> 100 µM (inactive),> 100 µM (inactive),> 100 µM (inactive),> 100 µM (inactive),> 100 µM (inactive),> 100 µM,> 100 µM (inactive),,,
C[C@H](NC(=O)n1c2ccccc2c2ccccc21)C(=O)O,> 100 µM (inactive),> 100 µM (inactive),> 100 µM (inactive),,> 100 µM (inactive),> 100 µM (inactive),> 100 µM (inactive),> 100 µM (inactive),> 100 µM (inactive),> 100 µM (inactive),> 100 µM (inactive),> 100 µM (inactive),> 100 µM (inactive),> 100 µM (inactive),> 100 µM (inactive),> 100 µM,> 100 µM (inactive),,,
C[C@@H]1C[C@H]2OC(=O)[C@@]3(C)CCC[C@@](C)([C@@H]23)[C@@]1(O)CCc1ccoc1,> 100 µM (inactive),> 100 µM (inactive),> 100 µM (inactive),> 59.3 µM (inactive),42.2 µM (inactive),45.1 µM (inactive),> 100 µM (inactive),> 100 µM (inactive),> 100 µM (inactive),> 100 µM (inactive),> 100 µM (inactive),> 100 µM (inactive),29.6 µM (inactive),,> 100 µM (inactive),79.3 µM,> 100 µM (inactive),> 100 µM (inactive),> 80.2 µM (inactive),> 100 µM (inactive)
